Data published in US11202815B2, “Composition for preventing, treating or improving prostate disease containing acanthopanax sessiliflorus, phragmites rhizome, and pinus densiflora extracts as active ingredient” (GENOME & MEDICINE CO., LTD., priority 2017, dated 2021).

Tested on: 5α-reductase type 2 (SRD5A2)
Assay: Western blotting of 5α-reductase type 2 (SRD5A2) protein expression level
Format: cell-based
Conditions: 0.40 mM, cultured for 24 hours, FIG. 8
Experimental: 5α-reductase had total three types of subtypes (types 1, 2 and 3), in which types 1 and 3 have been studied for diseases such as male hair loss or acne and type 2 was directly associated with benign prostatic hyperplasia.
As a result, in Example 6, a 5α-reductase type 2 (SRD5A2) protein expression level was analyzed by Western blotting to confirm 5α-reductase inhibitory activity.
Specifically, the cells were divided at a concentration of 2.0×10^5 cell/well and treated with 100 μg/ml of the Acanthopanax sessiliflorus extract, 600 μg/ml of the Pinus densiflora extract, 600 μg/ml of the Phragmites rhizome extract, or 350 μg/ml of the complex extract (Extract 4) obtained by mixing the extracts at 4:2:1 in a PRMI1640 medium containing 1% fetal bovine serum (FBS), and then cultured for 24 hours.
Finasteride, which has been sold as a 5α-reductase inhibitor on the market, was used as a positive control.
Then, the cultured cells were lysed, filtered with a 0.45 μm mesh, and subjected to Western blotting according to a procedure shown in FIG. 7.
Specifically, a primary antibody (Anti-SRD5A2, Sigma) was diluted to 1:200 and treated, and a secondary antibody (m-IgGP-HRP, Santa Cruz) was diluted to 1:3000 and treated, and then the expression levels of 5α-reductase type 2 according to treatment of each extract and each compound were confirmed.

Structure (SMILES) | expression levels of 5α-reductase type 2
COc1cc([C@@H]2OC[C@@H]3[C@H]2CO[C@H]3c2cc(OC)c(O[C@@H]3O[C@H](CO)[C@@H](O)[C@H](O)[C@H]3O)c(OC)c2)cc(OC)c1O[C@@H]1O[C@H](CO)[C@@H](O)[C@H](O)[C@H]1O [acanthoside D] | significantly reduced
O=C(O)/C=C/c1ccc(O)cc1 [p-coumaric acid] | significantly reduced
